PubChem BioAssay AID1963854 (Molecular Pharmacology Branch, DTP, NCI, 2024)

Test system: 186277-243-T-J2-PDC complex spheroid viability
Assay: Anticancer human tumor 186277-243-T-J2-PDC patient-derived colon adenocarcinoma cell line growth inhibition [POLQ]
Details: for IC50: curve of first compound; for viability, T/C: stronger effect = lower value
In short: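 Three-cell-type spheroids modelling solid tumor plus stroma served as the readout system; POL inhibitors were tested individually and in combination, concentration ranges set by clinical Cmax where known.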

[1] = second compound 0.0316 µM, first compound 0.000316 µM
[2] = second compound 0.0316 µM, first compound 0.001 µM
[3] = second compound 0.0316 µM, first compound 0.00316 µM
[4] = second compound 0.0316 µM, first compound 0.01 µM
[5] = second compound 0.0316 µM, first compound 0.0316 µM
[6] = second compound 0.0316 µM, first compound 0.1 µM
[7] = second compound 0.1 µM, first compound 0.000316 µM
[8] = second compound 0.1 µM, first compound 0.001 µM
[9] = second compound 0.1 µM, first compound 0.00316 µM
[10] = second compound 0.1 µM, first compound 0.01 µM
[11] = second compound 0.1 µM, first compound 0.0316 µM
[12] = second compound 0.1 µM, first compound 0.1 µM
[13] = second compound 0.316 µM, first compound 0.000316 µM
[14] = second compound 0.316 µM, first compound 0.001 µM
[15] = second compound 0.316 µM, first compound 0.00316 µM
[16] = second compound 0.316 µM, first compound 0.01 µM
[17] = second compound 0.316 µM, first compound 0.0316 µM
[18] = second compound 0.316 µM, first compound 0.1 µM
[19] = second compound 1 µM, first compound 0.000316 µM
[20] = second compound 1 µM, first compound 0.001 µM
[21] = second compound 1 µM, first compound 0.00316 µM
[22] = second compound 1 µM, first compound 0.01 µM
[23] = second compound 1 µM, first compound 0.0316 µM
[24] = second compound 1 µM, first compound 0.1 µM
[25] = second compound 3.16 µM, first compound 0.000316 µM
[26] = second compound 3.16 µM, first compound 0.001 µM
[27] = second compound 3.16 µM, first compound 0.00316 µM
[28] = second compound 3.16 µM, first compound 0.01 µM
[29] = second compound 3.16 µM, first compound 0.0316 µM
[30] = second compound 3.16 µM, first compound 0.1 µM
[31] = second compound 10 µM, first compound 0.000316 µM
[32] = second compound 10 µM, first compound 0.001 µM
[33] = second compound 10 µM, first compound 0.00316 µM
[34] = second compound 10 µM, first compound 0.01 µM
[35] = second compound 10 µM, first compound 0.0316 µM
[36] = second compound 10 µM, first compound 0.1 µM
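Note: spheroids exposed to compounds for seven days.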
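Throughout, for viability, T/C: 100% = DMSO vehicle control viability.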

**Q.** What does the source list for Cn1ncnc1[C@H]1c2n[nH]c(=O)c3cc(F)cc(c23)N[C@@H]1c1ccc(F)cc1 + COC1C(OC(N)=O)C(O)C(Oc2ccc3c(O)c(NC(=O)c4ccc(O)c(CC=C(C)C)c4)c(=O)oc3c2C)OC1(C)C?
**A.** IC50 (second compound 0.0316 µM): > 100 nM; IC50 (second compound 0.1 µM): > 100 nM; IC50 (second compound 0.316 µM): > 100 nM; IC50 (second compound 1 µM): > 100 nM; IC50 (second compound 3.16 µM): > 100 nM; IC50 (second compound 10 µM): > 100 nM; viability, T/C [1]: 96.7%; viability, T/C [2]: 93%; viability, T/C [3]: 114%; viability, T/C [4]: 112%; viability, T/C [5]: 119%; viability, T/C [6]: 105%; viability, T/C [7]: 103%; viability, T/C [8]: 110%; viability, T/C [9]: 103%; viability, T/C [10]: 106%; viability, T/C [11]: 116%; viability, T/C [12]: 108%; viability, T/C [13]: 101%; viability, T/C [14]: 111%; viability, T/C [15]: 111%; viability, T/C [16]: 105%; viability, T/C [17]: 114%; viability, T/C [18]: 108%; viability, T/C [19]: 84.4%; viability, T/C [20]: 110%; viability, T/C [21]: 108%; viability, T/C [22]: 98.3%; viability, T/C [23]: 118%; viability, T/C [24]: 102%; viability, T/C [25]: 92.4%; viability, T/C [26]: 106%; viability, T/C [27]: 107%; viability, T/C [28]: 117%; viability, T/C [29]: 128%; viability, T/C [30]: 100%; viability, T/C [31]: 96.2%; viability, T/C [32]: 106%; viability, T/C [33]: 110%; viability, T/C [34]: 101%; viability, T/C [35]: 109%; viability, T/C [36]: 104%

**Q.** Which results are given for CC[C@@]1(O)C(=O)OCc2c1cc1n(c2=O)Cc2cc3c(CN(C)C)c(O)ccc3nc2-1 + Nc1ccc(C#CCN(C(=O)Cc2ncc(C(F)(F)F)cc2C(F)(F)F)c2ccc(F)cc2)nn1?
**A.** IC50 (second compound 0.0316 µM): > 100 nM; IC50 (second compound 0.1 µM): > 100 nM; IC50 (second compound 0.316 µM): > 100 nM; IC50 (second compound 1 µM): > 100 nM; IC50 (second compound 3.16 µM): > 100 nM; IC50 (second compound 10 µM): > 100 nM; viability, T/C [1]: 114%; viability, T/C [2]: 98%; viability, T/C [3]: 123%; viability, T/C [4]: 114%; viability, T/C [5]: 136%; viability, T/C [6]: 91.7%; viability, T/C [7]: 109%; viability, T/C [8]: 93.8%; viability, T/C [9]: 90.6%; viability, T/C [10]: 129%; viability, T/C [11]: 128%; viability, T/C [12]: 88.1%; viability, T/C [13]: 92.9%; viability, T/C [14]: 87.2%; viability, T/C [15]: 108%; viability, T/C [16]: 133%; viability, T/C [17]: 124%; viability, T/C [18]: 83.8%; viability, T/C [19]: 97.3%; viability, T/C [20]: 105%; viability, T/C [21]: 117%; viability, T/C [22]: 115%; viability, T/C [23]: 130%; viability, T/C [24]: 81.1%; viability, T/C [25]: 89.2%; viability, T/C [26]: 91.5%; viability, T/C [27]: 104%; viability, T/C [28]: 122%; viability, T/C [29]: 124%; viability, T/C [30]: 79.9%; viability, T/C [31]: 111%; viability, T/C [32]: 89.7%; viability, T/C [33]: 116%; viability, T/C [34]: 121%; viability, T/C [35]: 107%; viability, T/C [36]: 70.6%

**Q.** Which results are given for O=c1[nH]cc(F)c(=O)[nH]1 + COC1C(OC(N)=O)C(O)C(Oc2ccc3c(O)c(NC(=O)c4ccc(O)c(CC=C(C)C)c4)c(=O)oc3c2C)OC1(C)C?
**A.** IC50 (second compound 0.0316 µM): > 10000 nM; IC50 (second compound 0.1 µM): > 10000 nM; IC50 (second compound 0.316 µM): > 10000 nM; IC50 (second compound 1 µM): 9820 nM; IC50 (second compound 3.16 µM): 9690 nM; IC50 (second compound 10 µM): 9800 nM; viability, T/C [5]: 88%; viability, T/C [6]: 100%; viability, T/C (second compound 0.0316 µM, first compound 0.316 µM): 104%; viability, T/C (second compound 0.0316 µM, first compound 1 µM): 106%; viability, T/C (second compound 0.0316 µM, first compound 3.16 µM): 70%; viability, T/C (second compound 0.0316 µM, first compound 10 µM): 49.9%; viability, T/C [11]: 92%; viability, T/C [12]: 105%; viability, T/C (second compound 0.1 µM, first compound 0.316 µM): 104%; viability, T/C (second compound 0.1 µM, first compound 1 µM): 100%; viability, T/C (second compound 0.1 µM, first compound 3.16 µM): 70%; viability, T/C (second compound 0.1 µM, first compound 10 µM): 52%; viability, T/C [17]: 104%; viability, T/C [18]: 108%; viability, T/C (second compound 0.316 µM, first compound 0.316 µM): 114%; viability, T/C (second compound 0.316 µM, first compound 1 µM): 119%; viability, T/C (second compound 0.316 µM, first compound 3.16 µM): 69.3%; viability, T/C (second compound 0.316 µM, first compound 10 µM): 49.6%; viability, T/C [23]: 109%; viability, T/C [24]: 111%; viability, T/C (second compound 1 µM, first compound 0.316 µM): 86.2%; viability, T/C (second compound 1 µM, first compound 1 µM): 102%; viability, T/C (second compound 1 µM, first compound 3.16 µM): 69%; viability, T/C (second compound 1 µM, first compound 10 µM): 49.8%; viability, T/C [29]: 102%; viability, T/C [30]: 115%; viability, T/C (second compound 3.16 µM, first compound 0.316 µM): 109%; viability, T/C (second compound 3.16 µM, first compound 1 µM): 107%; viability, T/C (second compound 3.16 µM, first compound 3.16 µM): 66.9%; viability, T/C (second compound 3.16 µM, first compound 10 µM): 49.1%; viability, T/C [35]: 117%; viability, T/C [36]: 97.2%; viability, T/C (second compound 10 µM, first compound 0.316 µM): 108%; viability, T/C (second compound 10 µM, first compound 1 µM): 105%; viability, T/C (second compound 10 µM, first compound 3.16 µM): 73.5%; viability, T/C (second compound 10 µM, first compound 10 µM): 49.6%
